Test results from patent publication US5312919A, “Photooxidation products and derivatives thereof of merocyanine-540, their preparation and uses” (priority 1992, dated 1994).
Where two headings read alike, the source gives them in different places.

Experiments:
[1] = test system: U266B1 (myeloma); assay: Inhibition of cell proliferation, U266B1 (MTT assay); format: cell-based; details: 24 hr.
Method: (§1) Preactivated MC 540 is abbreviated as pMC 540. […] 52: 831-38 (1990); and T. Mosmann, J. Immulog. Methods 65: 55-63 (1983).
(§2) Each cell type (1×10^6 cells/ml; in triplicate) was treated with indicated concentrations of merocil or merodantoin. […] The cytotoxicity in vehicle only (cremophor EL) controls was not detectable at highest dose tested.

[2] = test system: MT-4 cells; assay: Effect on viability of MT-4 cells; format: cell-based; details: experimental conditions of Table 8
Method: (§3) Cell free human immunodeficiency virus (HIV-1) was either left untreated or treated with indicated doses of Merocil or Merodantoin for one hour at 37° C. and added to MT-4 target cells. After 4 hour incubation at 37° C., the cells were washed three times and further incubated in drug free fresh growth medium (complete RPMI-1640) at 37° C. for 4 days. On day four, 50% of the culture supernatant was replaced with fresh growth medium to prevent cell death due to possible nutrient depletion. The viability of the cell was determined on day 11 by MTT assay. […] The viability of the MT-4 cells was not affected by Merocil or Merodantoin under the experimental conditions described above.

[3] = test system: certain tumor cells; assay: Inhibition of proliferation of tumor cells (overall conclusion); format: cell-based
Excerpt: as §1

[4] = test system: MS 751 (cervix, carcinoma, human); assay: Inhibition of cell proliferation, MS 751 (MTT assay); format: cell-based; details: for inhibition at 1.56 µg/mL / inhibition at 3.13 µg/mL / inhibition at 6.25 µg/mL / inhibition at 12.5 µg/mL: read-out: % inhibition of cell proliferation
Method: as §1
(§4) Each cell type (1×10^6 cells/ml; in triplicate) was treated with indicated concentrations of merocil or merodantoin. After overnight (20 hr.) or 5 day incubation periods, the cell viability was determined by MTT assay and calculated as a percentage of untreated controls. The toxicity in vehicle only (cremophor EL) controls was not detectable at highest dose tested.

[5] = test system: human immunodeficiency virus (HIV-1); assay: Inactivation of cell free human immunodeficiency virus (viability of MT-4 target cells, MTT assay); format: cell-based
Method: as §1, §3

[6] = test system: BT-20 (breast, adenocarcinoma); assay: Inhibition of cell proliferation, BT-20 (MTT assay); format: cell-based; details: Homo sapiens; for inhibition at 1.56 µg/mL: 1.56 μg/ml; for inhibition at 1.56 µg/mL / inhibition at 3.13 µg/mL / inhibition at 6.25 µg/mL / inhibition at 12.5 µg/mL: read-out: % inhibition of cell proliferation; for inhibition at 3.13 µg/mL: 3.13 μg/ml; for inhibition at 6.25 µg/mL: 6.25 μg/ml; for inhibition at 12.5 µg/mL: 12.5 μg/ml; for inhibition at 25 µg/mL: 25.0 μg/ml
Excerpt: Preactivated MC 540 is abbreviated as pMC 540. […] 52: 831-38 (1990); and T. Mosmann, J. Immulog. Methods 65: 55-63 (1983). […]

[7] = Cytotoxicity on normal human peripheral blood mononuclear cells (trypan blue dye exclusion); format: cell-based; details: human, peripheral blood mononuclear cells, overnight, 37° C., read-out: % cell kill (mean ± S.E.M.)
Method: (§5) Preactivated MC 540 is abbreviated as pMC 540.
(§6) Merocil and Merodantoin were dissolved in cremophor EL whereas pMC 540 was prepared in 10% aqueous ethanol. […] Fresh human peripheral mononucleas cells (1×10^6 cells/ml) were treated with indicated concentration of compounds. After overnight incubation at 37° C., cell viability was determined by trypan blue dye exclusion method.

[8] = test system: normal human peripheral blood mononuclear cells; assay: as above; format: cell-based; details: doses of Table 1
Method: as §5, §6

[9] = test system: L1210 mouse leukemia cells; assay: Combined effect on L1210 mouse leukemia cells (MTT assay); details: MC = 12.5 μg/ml; MD = 25 μg/ml; MZ = 25 μg/ml; overnight
Method: The biological activities of the photooxidation products of MC 540 were determined. Preactivated MC 540 is abbreviated as pMC 540. Assays of antitumor activities of the products were carried out according to published standard methods.
Mouse leukemia L1210 cells (1 × 10^6 cells/ml) were treated wit
different combinations of the indicated compounds (isolated from
preactivated merocyanine 540). After overnight incubation the cell kill
was determined by MTT assay.

[10] = test system: JEG-3 (choriocarcinoma, human); assay: Inhibition of cell proliferation, JEG-3 (MTT assay); format: cell-based; details: for inhibition at 1.56 µg/mL / inhibition at 3.13 µg/mL / inhibition at 6.25 µg/mL / inhibition at 12.5 µg/mL: read-out: % inhibition of cell proliferation
Method: as §1, §4

[11] = test system: 8226 (multiple myeloma); assay: Inhibition of cell proliferation, 8226 (MTT assay); format: cell-based; details: 24 hr.
Method: as §1, §2

[12] = test system: H.S. Sultan (multiple myeloma); assay: Inhibition of cell proliferation, H.S. Sultan (MTT assay); format: cell-based; details: 24 hr.
Method: as §1, §2

[13] = test system: DU 145 (prostate, carcinoma, human); assay: Inhibition of cell proliferation, DU 145 (MTT assay); format: cell-based; details: for inhibition at 1.56 µg/mL / inhibition at 3.13 µg/mL / inhibition at 6.25 µg/mL / inhibition at 12.5 µg/mL: read-out: % inhibition of cell proliferation
Method: as §1, §4

[14] = 1.56 μg/ml, read-out: % inhibition of cell proliferation
[15] = 3.13 μg/ml, read-out: % inhibition of cell proliferation
[16] = 6.25 μg/ml, read-out: % inhibition of cell proliferation
[17] = 12.5 μg/ml, read-out: % inhibition of cell proliferation

CCCCN1C(=O)C(=O)N(CCCC)C1=S [Merodantoin, N,N'-Dibutyl-2-thio-4,5-imidazolindion]
inhibition at 1.56 µg/mL [1, 14]: 8%
inhibition at 3.13 µg/mL [1, 15]: 10%
inhibition at 6.25 µg/mL [1, 16]: 10%
inhibition at 12.5 µg/mL [1, 17]: 12%
inhibition at 25 µg/mL ([1]; 25.0 μg/ml): 12%
viability of the MT-4 cells [2]: not affected
inhibiting the proliferation of certain tumor cells [3]: effective
inhibition at 1.56 µg/mL ([4]; MS751, 1.56 μg/ml, 20 hr.): 8%
inhibition at 3.13 µg/mL ([4]; MS751, 3.13 μg/ml, 20 hr.): 24%
inhibition at 6.25 µg/mL ([4]; MS751, 6.25 μg/ml, 20 hr.): 20%
inhibition at 12.5 µg/mL ([4]; MS751, 12.5 μg/ml, 20 hr.): 28%
inhibition at 25 µg/mL ([4]; MS751, 25.0 μg/ml, 20 hr.): 41%
inhibition at 1.56 µg/mL ([4]; MS751, 120 h, 1.56 μg/ml, 5 days): 11%
inhibition at 3.13 µg/mL ([4]; MS751, 120 h, 3.13 μg/ml, 5 days): 23%
inhibition at 6.25 µg/mL ([4]; MS751, 120 h, 6.25 μg/ml, 5 days): 66%
inhibition at 12.5 µg/mL ([4]; MS751, 120 h, 12.5 μg/ml, 5 days): 90%
inhibition at 25 µg/mL ([4]; MS751, 120 h, 25.0 μg/ml, 5 days): 100%
inactivation of cell free HIV ([5]; 75 μg/ml dose): virtually complete inactivation of the virus
viability at 25 µg/mL ([5]; Human immunodeficiency virus 1, MT4, 264 h, MT-4 cells + HIV treated with 25 μg/ml, one hour 37° C., day 11, untreated HIV-1 36.75): 73.5%
viability at 50 µg/mL ([5]; Human immunodeficiency virus 1, MT4, 264 h, MT-4 cells + HIV treated with 50 μg/ml, one hour 37° C., day 11, untreated HIV-1 36.75): 94.3%
viability at 75 µg/mL ([5]; Human immunodeficiency virus 1, MT4, 264 h, MT-4 cells + HIV treated with 75 μg/ml, one hour 37° C., day 11, untreated HIV-1 36.75): 102%
inactivating human immunodeficiency virus (HIV-1) ([5]; conclusion): effective
inhibition at 1.56 µg/mL ([6]; BT-20, 96 h, 4 days): 19%
inhibition at 3.13 µg/mL ([6]; BT-20, 96 h, 4 days): 52%
inhibition at 6.25 µg/mL ([6]; BT-20, 96 h, 4 days): 20%
inhibition at 12.5 µg/mL ([6]; BT-20, 96 h, 4 days): 12%
inhibition at 25 µg/mL ([6]; BT-20, 96 h, 4 days): 73%
inhibition at 1.56 µg/mL ([6]; BT-20, 48 hr.): 0%
inhibition at 3.13 µg/mL ([6]; BT-20, 48 hr.): 0%
inhibition at 6.25 µg/mL ([6]; BT-20, 48 hr.): 0%
inhibition at 12.5 µg/mL ([6]; BT-20, 48 hr.): 8%
inhibition at 25 µg/mL ([6]; BT-20, 48 hr.): 26%
cytotoxicity ([7]; 1.56 μg/ml): 4.33 ± 1.07%
cytotoxicity ([7]; 3.13 μg/ml): 3.67 ± 0.51%
cytotoxicity ([7]; 6.25 μg/ml): 5.33 ± 0.84%
cytotoxicity ([7]; 12.5 μg/ml): 11.3 ± 1.83%
cytotoxicity ([7]; 25.0 μg/ml): 25.7 ± 0.51%
toxicity to normal human peripheral blood mononuclear cells [8]: relatively non-toxic
% Cell Kill [9]: 64%
inhibition at 1.56 µg/mL ([10]; JEG-3, 1.56 μg/ml, 20 hr.): 15%
inhibition at 3.13 µg/mL ([10]; JEG-3, 3.13 μg/ml, 20 hr.): 53%
inhibition at 6.25 µg/mL ([10]; JEG-3, 6.25 μg/ml, 20 hr.): 88%
inhibition at 12.5 µg/mL ([10]; JEG-3, 12.5 μg/ml, 20 hr.): 100%
inhibition at 25 µg/mL ([10]; JEG-3, 25.0 μg/ml, 20 hr.): 100%
inhibition at 1.56 µg/mL ([10]; JEG-3, 120 h, 1.56 μg/ml, 5 days): 18%
inhibition at 3.13 µg/mL ([10]; JEG-3, 120 h, 3.13 μg/ml, 5 days): 38%
inhibition at 6.25 µg/mL ([10]; JEG-3, 120 h, 6.25 μg/ml, 5 days): 91%
inhibition at 12.5 µg/mL ([10]; JEG-3, 120 h, 12.5 μg/ml, 5 days): 100%
inhibition at 25 µg/mL ([10]; JEG-3, 120 h, 25.0 μg/ml, 5 days): 100%
inhibition at 1.56 µg/mL [11, 14]: 20%
inhibition at 3.13 µg/mL [11, 15]: 16%
inhibition at 6.25 µg/mL [11, 16]: 20%
inhibition at 12.5 µg/mL [11, 17]: 30%
inhibition at 25 µg/mL ([11]; 25.0 μg/ml): 46%
inhibition at 1.56 µg/mL [12, 14]: 18%
inhibition at 3.13 µg/mL [12, 15]: 34%
inhibition at 6.25 µg/mL [12, 16]: 54%
inhibition at 12.5 µg/mL [12, 17]: 77%
inhibition at 25 µg/mL ([12]; 25.0 μg/ml): 87%
inhibition at 1.56 µg/mL ([13]; DU-145, 1.56 μg/ml, 20 hr.): 0%
inhibition at 3.13 µg/mL ([13]; DU-145, 3.13 μg/ml, 20 hr.): 1%
inhibition at 6.25 µg/mL ([13]; DU-145, 6.25 μg/ml, 20 hr.): 8%
inhibition at 12.5 µg/mL ([13]; DU-145, 12.5 μg/ml, 20 hr.): 9%
inhibition at 25 µg/mL ([13]; DU-145, 25.0 μg/ml, 20 hr.): 11%
inhibition at 1.56 µg/mL ([13]; DU-145, 120 h, 1.56 μg/ml, 5 days): 54%
inhibition at 3.13 µg/mL ([13]; DU-145, 120 h, 3.13 μg/ml, 5 days): 85%
inhibition at 6.25 µg/mL ([13]; DU-145, 120 h, 6.25 μg/ml, 5 days): 99%
inhibition at 12.5 µg/mL ([13]; DU-145, 120 h, 12.5 μg/ml, 5 days): 100%
inhibition at 25 µg/mL ([13]; DU-145, 120 h, 25.0 μg/ml, 5 days): 100%
